Results on 31 compounds are retold here after US9365541B2, “Compounds for use in the treatment of parasitic diseases” (IRBM—SCIENCE PARK S.P.A., priority 2012, dated 2016).

For assay [1], the target named is T1, human HDAC1 (Homo sapiens, UniProt Q13547).
T1 construct: made in house; host or cells: HeLa (ATCC CCL-2), mammalian cells
In words: Homo sapiens HDAC1 inhibition assay (Fluor-de-Lys, enzymatic). The following applies: human HDAC enzymatic assay; read-out: hHDAC IC50. Type of assay: biochemical. In a few lines: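 Product developed with trypsin developer containing 2 μM TSA to stop the reaction; fluorescence measures deacetylase activity, inversely related to inhibition.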

Assay [2] has as its system Plasmodium falciparum 3D7. In words: P. falciparum growth inhibition assay (Pf-LDH). It is filed as cell-based. The following applies: Plasmodium falciparum. A digest of the protocol: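 P. falciparum 3D7 (chloroquine-sensitive) at 0.25% parasitemia and 2% hematocrit was incubated with compound for 72 h at 37° C under 4% CO2/3% O2/93% N2. After freeze-thaw, PfLDH activity was read at 650 nm with lactate/APAD/NBT/diaphorase mix (pH 8.0).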

[3] abbreviates: Erythrocyte, P. falciparum 3D7 infected erythrocytes, 72 h incubation, PfLDH readout.

The IC50 is the concentration that gives 50% inhibition. As usually defined, the EC50 is the midpoint of the concentration-response curve.

T1 sequence (Q13547 whole entry): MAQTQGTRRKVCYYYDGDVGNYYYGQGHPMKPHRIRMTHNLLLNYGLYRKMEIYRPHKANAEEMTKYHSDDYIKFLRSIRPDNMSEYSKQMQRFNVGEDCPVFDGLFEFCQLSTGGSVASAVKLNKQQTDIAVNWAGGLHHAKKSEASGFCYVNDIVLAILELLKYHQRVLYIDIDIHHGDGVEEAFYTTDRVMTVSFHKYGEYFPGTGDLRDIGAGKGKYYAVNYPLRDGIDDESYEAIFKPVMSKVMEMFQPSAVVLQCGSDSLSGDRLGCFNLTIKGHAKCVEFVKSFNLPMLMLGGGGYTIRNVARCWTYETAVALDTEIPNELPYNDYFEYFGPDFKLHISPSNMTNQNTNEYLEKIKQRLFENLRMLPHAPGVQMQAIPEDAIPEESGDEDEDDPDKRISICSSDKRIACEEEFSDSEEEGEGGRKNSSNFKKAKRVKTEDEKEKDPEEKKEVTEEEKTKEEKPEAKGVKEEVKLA

As for `CCc1nc2ccccc2n1CCC(=O)N[C@@H](CCCCCC(=O)NC)c1ncc(-c2ccc3ccccc3c2)[nH]1` [Entry 150, (S)-7-(3-(2-ethyl-1H-benzo[d]imidazol-1-yl)propanamido)-N-methyl-7-(5-(naphthalen-2-yl)-1H-imidazol-2-yl)heptanamide], in assay [1], the IC50 is below 1000 nM. The EC50 in assay [2] (setting [3]) was below 1000 nM.

As to `CNC(=O)CCCCC[C@H](NC(=O)Cc1cnc2ccccc2c1)c1ncc(-c2ccc(-n3cccn3)cc2)[nH]1` [Entry 110], the IC50 in assay [1] was below 1000 nM. In assay [2] (setting [3]), this compound had an EC50 of 1000 to 5000 nM.

Take `CNC(=O)CCCCC[C@H](NC(=O)c1cncs1)c1ncc(-c2ccc3[nH]ncc3c2)[nH]1` [Entry 160, (S)-N-(1-(5-(1H-indazol-5-yl)-1H-imidazol-2-yl)-7-(methylamino)-7-oxoheptyl)thiazole-5-carboxamide]: the IC50 in assay [1] is 1000 to 5000 nM. The EC50 in assay [2] (setting [3]) was below 1000 nM.

Turning to `CNC(=O)CCCCC[C@H](NC(=O)c1cncs1)c1ncc(-c2ccc3nc(C(F)(F)F)ccc3c2)[nH]1` [Entry 19, (S)-N-(7-(methylamino)-7-oxo-1-(5-(2-(trifluoro-methyl)quinolin-6-yl)-1H-imidazol-2-yl)heptyl)thiazole-5-carboxamide], the IC50 in assay [1] was 1000 to 5000 nM. Further, in assay [2] (setting [3]), the EC50 fell in the range of 1000 to 5000 nM.

Turning to `CNC(=O)CCCCC[C@H](NC(=O)c1cncs1)c1ncc(-c2ccc3cc(C(F)(F)F)ncc3c2)[nH]1` [Entry 190], the IC50 in assay [1] was below 1000 nM. For the same compound, the EC50 in assay [2] (setting [3]) was below 1000 nM.

Take `CNC(=O)CCCCC[C@H](NC(=O)CCN1CCOCC1)c1ncc(-c2cc3ccccc3nc2OC)[nH]1` [Entry 130]: the IC50 in assay [1] is above 5000 nM. Besides, in assay [2] (setting [3]), the EC50 lay within 1000 to 5000 nM.

For `CNC(=O)CCCCC[C@H](NC(=O)Cc1cnc2ccccn12)c1ncc(-c2ccc(-n3cccn3)cc2)[nH]1` [Entry 163, (S)-7-(5-(4-(1H-pyrazol-1-yl)phenyl)-1H-imidazol-2-yl)-7-(2-(imidazo[1,2-a]pyridin-3-yl)acetamido)-N-methylheptanamide], the IC50 in assay [1] was 1000 to 5000 nM. This compound came in with an EC50 in assay [2] (setting [3]) of 1000 to 5000 nM.

Turning to `CNC(=O)CCCCC[C@H](NC(=O)c1cncs1)c1ncc(-c2ccc3cccnc3c2)[nH]1` [Entry 10], the IC50 in assay [1] was above 5000 nM. The compound also showed an EC50 in assay [2] (setting [3]) of 1000 to 5000 nM.

Take `CNC(=O)CCCCC[C@H](NC(=O)OCc1ccccc1)c1ncc(-c2ccc(-c3ccn(C)n3)cc2)[nH]1` [Entry 182, (S)-benzyl(1-(5-(4-(1-methyl-1H-pyrazol-3-yl)phenyl)-1H-imidazol-2-yl)-7-(methylamino)-7-oxoheptyl)carbamate]: the IC50 in assay [1] was 1000 to 5000 nM. Moreover, the EC50 in assay [2] (setting [3]) was 1000 to 5000 nM.

As for `CNC(=O)CCCCC[C@H](NC(=O)C12CCN(CC1)CC2)c1ncc(-c2ccc3ccccc3c2)[nH]1` [compound 126, (S)-N-(7-(methylamino)-1-(5-(naphthalen-2-yl)-1H-imidazol-2-yl)-7-oxo-heptyl)quinuclidine-4-carboxamide], the IC50 in assay [1] was below 1000 nM. In addition, the EC50 in assay [2] (setting [3]) was below 1000 nM; in assay [2] (P. falciparum 3D7, n=11) it was 293 nM.

For `CNC(=O)CCCCC[C@H](NC(=O)Cc1cnccn1)c1ncc(-c2ccc3ccccc3c2)[nH]1` [Entry 113], in assay [1], the IC50 fell in the range of 1000 to 5000 nM. Further, the EC50 in assay [2] (setting [3]) was in the range of 1000 to 5000 nM.

On to `CNC(=O)CCCCC[C@H](NC(=O)c1cccc2nccnc12)c1ncc(-c2ccc3ccccc3c2)[nH]1` [Entry 88, (S)-N-(7-(methylamino)-1-(5-(naphthalen-2-yl)-1H-imidazol-2-yl)-7-oxo-heptyl)quinoxaline-5-carboxamide], for which the IC50 in assay [1] was above 5000 nM. In assay [2] (setting [3]), this compound had an EC50 above 5000 nM.

On to `CNC(=O)CCCCC[C@H](NC(=O)c1cncs1)c1ncc(-c2ccc3ccnc(OC)c3c2)[nH]1` [Entry 219, (S)-N-(1-(5-(1-methoxyisoquinolin-7-yl)-1H-imidazol-2-yl)-7-(methylamino)-7-oxoheptyl)thiazole-5-carboxamide], for which the IC50 in assay [1] is 1000 to 5000 nM. This compound displayed an EC50 in assay [2] (setting [3]) of 1000 to 5000 nM.

Take `CNC(=O)CCCCC[C@H](NC(=O)OCc1ccccc1)c1ncc(-c2ccc3ccncc3c2)[nH]1` [Entry 93, (S)-benzyl (1-(5-(isoquinolin-7-yl)-1H-imidazol-2-yl)-7-(methylamino)-7-oxoheptyl)carbamate]: the IC50 in assay [1] was below 1000 nM. This compound returned an EC50 in assay [2] (setting [3]) below 1000 nM.

For the compound `CNC(=O)CCCCC[C@H](NS(=O)(=O)c1ccc(C#N)cc1)c1ncc(-c2cc3ccccc3nc2OC)[nH]1` [Entry 220], the IC50 in assay [1] was below 1000 nM. The compound also showed an EC50 in assay [2] (setting [3]) below 1000 nM.

Regarding `CNC(=O)CCCCC[C@H](NC(=O)C1CCN(C)CC1)c1ncc(-c2ccc3ccncc3c2)[nH]1` [Entry 118, (S)-N-(1-(5-(isoquinolin-7-yl)-1H-imidazol-2-yl)-7-(methylamino)-7-oxoheptyl)-1-methylpiperidine-4-carboxamide], the IC50 in assay [1] fell in the range of 1000 to 5000 nM. In assay [2] (setting [3]), this compound showed an EC50 of 1000 to 5000 nM.

In the case of `CNC(=O)CCCCC[C@H](NC(=O)C1CC1c1ccncc1)c1ncc(-c2ccc(-c3ccn(C)n3)cc2)[nH]1` (stereo partly drawn) [Entry 170, N-((S)-1-(5-(4-(1-methyl-1H-pyrazol-3-yl)phenyl)-1H-imidazol-2-yl)-7-(methylamino)-7-oxoheptyl)-2-(pyridin-4-yl)cyclopropane-carboxamide], in assay [1], the IC50 fell in the range of 1000 to 5000 nM. In assay [2] (setting [3]), this compound had an EC50 of 1000 to 5000 nM.

As for `CNC(=O)CCCCC[C@H](NC(=O)c1cncs1)c1ncc(-c2cc3cc(OC)ccc3[nH]2)[nH]1` [Entry 54, (S)-N-(1-(5-(5-methoxy-1H-indol-2-yl)-1H-imidazol-2-yl)-7-(methylamino)-7-oxoheptyl)thiazole-5-carboxamide], the IC50 in assay [1] lay within 1000 to 5000 nM. This compound also had an EC50 in assay [2] (setting [3]) of 1000 to 5000 nM.

Turning to `CNC(=O)CCCCC[C@H](NC(=O)C12CCN(CC1)CC2)c1ncc(-c2ccc3cc(OC)ccc3c2)[nH]1` [Entry 153, (S)-N-(1-(5-(6-methoxynaphthalen-2-yl)-1H-imidazol-2-yl)-7-(methylamino)-7-oxo-heptyl)quinuclidine-4-carboxamide], the IC50 in assay [1] is below 1000 nM. The EC50 in assay [2] (setting [3]) was below 1000 nM.

Turning to `CNC(=O)CCCCC[C@H](NC(=O)Cc1csc(-c2ccccc2)n1)c1ncc(-c2cc3ccccc3nc2OC)[nH]1` [Entry 185], in assay [1], the IC50 was 1000 to 5000 nM. The compound further returned an EC50 in assay [2] (setting [3]) of 1000 to 5000 nM.

In the case of `CNC(=O)CCCCC[C@H](NC(=O)c1cnc(C)s1)c1ncc(-c2ccc3ccncc3c2)[nH]1` [Entry 49, (S)-N-(1-(5-(isoquinolin-7-yl)-1H-imidazol-2-yl)-7-(methylamino)-7-oxoheptyl)-2-methylthiazole-5-carboxamide], the IC50 in assay [1] was below 1000 nM. In assay [2] (setting [3]), this compound had an EC50 below 1000 nM.

As for `CNC(=O)CCCCC[C@H](NC(=O)CCc1nc2ccccc2s1)c1ncc(-c2ccc(-n3cccn3)cc2)[nH]1` [Entry 142, (S)-7-(5-(4-(1H-pyrazol-1-yl)phenyl)-1H-imidazol-2-yl)-7-(3-(benzo[d]thiazol-2-yl)propanamido)-N-methylheptanamide], the IC50 in assay [1] is 1000 to 5000 nM. Also, in assay [2] (setting [3]), the EC50 lay in the range of 1000 to 5000 nM.

Turning to `CNC(=O)CCCCC[C@H](NC(=O)c1nc2ncccn2n1)c1ncc(-c2ccc3ccccc3c2)[nH]1` [Entry 43, (S)-N-(7-(methylamino)-1-(5-(naphthalen-2-yl)-1H-imidazol-2-yl)-7-oxoheptyl)-[1,2,4]triazolo[1,5-a]pyrimidine-2-carboxamide], the IC50 in assay [1] was 1000 to 5000 nM. The compound further gave an EC50 in assay [2] (setting [3]) above 5000 nM.

As for `COc1nc2ccccc2cc1-c1cnc([C@H](CCCCCC(N)=O)OC(=O)C23CCN(CC2)CC3)o1` [Entry 55], in assay [1], the IC50 is below 1000 nM. This compound also gave an EC50 in assay [2] (setting [3]) of 1000 to 5000 nM.

Turning to `CCc1nc2ccccc2n1CCC(=O)N[C@@H](CCCCCC(=O)NC)c1nnc(-c2ccc3ccccc3c2)o1` [Entry 94, (S)-7-(3-(2-ethyl-1H-benzo[d]imidazol-1-yl)propanamido)-N-methyl-7-(5-(naphthalen-2-yl)-1,3,4-oxadiazol-2-yl)heptanamide], in assay [1], the IC50 was in the range of 1000 to 5000 nM. Moreover, the EC50 in assay [2] (setting [3]) was 1000 to 5000 nM.

As for `CNC(=O)CCCCC[C@H](NC(=O)c1cncs1)c1ncc(-c2ccc(-c3cccs3)cc2)[nH]1` [Entry 109, (S)-N-(7-(methylamino)-7-oxo-1-(5-(4-(thiophen-2-yl)phenyl)-1H-imidazol-2-yl)heptyl)thiazole-5-carboxamide], the IC50 in assay [1] was 1000 to 5000 nM. In addition, the EC50 in assay [2] (setting [3]) lay in the range of 1000 to 5000 nM.

Take `CNC(=O)CCCCC[C@H](NC(=O)c1ccn(C)n1)c1ncc(-c2cc3ccccc3nc2OC)[nH]1` [Entry 135, (S)-N-(1-(5-(2-methoxyquinolin-3-yl)-1H-imidazol-2-yl)-7-(methylamino)-7-oxoheptyl)-1-methyl-1H-pyrazole-3-carboxamide]: the IC50 in assay [1] is above 5000 nM. In assay [2] (setting [3]), this compound had an EC50 of 1000 to 5000 nM.

Consider `CNC(=O)CCCCC[C@H](NC(=O)c1ccns1)c1ncc(-c2ccc3ccncc3c2)[nH]1` [Entry 67], for which the IC50 in assay [1] was below 1000 nM. The same compound yielded an EC50 in assay [2] (setting [3]) below 1000 nM.

For `CNC(=O)CCCCC[C@H](NC(=O)CN(C)C)c1ncc(-c2cc3ccccc3nc2OC)[nH]1` [Entry 179, (S)-7-(2-(dimethyl-amino)acetamido)-7-(5-(2-methoxyquinolin-3-yl)-1H-imidazol-2-yl)-N-methylheptanamide], the IC50 in assay [1] was 1000 to 5000 nM. In assay [2] (setting [3]), this compound had a concentration giving a half-maximal response (EC50) above 5000 nM.

As for `CNC(=O)CCCCC[C@H](NC(=O)Cc1cn2ccsc2n1)c1ncc(-c2ccc3ccncc3c2)[nH]1` [Entry 168, (S)-7-(2-(imidazo[2,1-b]thiazol-6-yl)acetamido)-7-(5-(isoquinolin-7-yl)-1H-imidazol-2-yl)-N-methyl-heptanamide], the IC50 in assay [1] lay within 1000 to 5000 nM. Further, in assay [2] (setting [3]), the EC50 lay within 1000 to 5000 nM.

For the compound `CNC(=O)CCCCC[C@H](NC(=O)c1cncs1)c1ncc(-c2ccc3occc3c2)[nH]1` [Entry 136, (S)-N-(1-(5-(benzofuran-5-yl)-1H-imidazol-2-yl)-7-(methylamino)-7-oxoheptyl)thiazole-5-carboxamide], the IC50 in assay [1] is above 5000 nM. The EC50 in assay [2] (setting [3]) was above 5000 nM.
